Measurements reported in patent US11753363B2, “13-oxidized ingenol derivative and use thereof” (Tianjin Pharmaceutical Da Ren Tang Group Corp., Ltd. …, priority 2017, dated 2023).
Values after ≈ are worked out from the molar mass of the structure shown.

Experiments:
[1] = test system: A549 (human lung cancer cells); assay: Inhibition of proliferation of tumor cell lines (MTT), A549; format: cell-based; conditions: Homo sapiens, A549, 72 h, read-out: IC50 value of compound for inhibition of proliferation of tumor cell lines, A549
Protocol: (§1) In this example, the inhibitory activity of compounds of the present invention against proliferation of seven human tumor cell lines and mouse B16-F10 melanoma cells was tested in vitro, and the IC50 value (50% inhibitory concentration) of compounds against each tumor cell line was calculated.
(§2) The seven human tumor cell lines are: MCF-7 (human breast cancer cells), LOVO (human colon cancer cells), A549 (human lung cancer cells), BGC-823 (human gastric cancer cells), SMMC-7721 (human liver cancer cells), K562 (human leukemia cells), and HeLa (human cervical cancer cells).
(§3) IC50 values of the compounds for A549, BGC-823, LOVO, MCF-7, SMMC-7721, HeLa, and B16-F10 cells were tested. The above cells were routinely cultured in 1640 nutrient solution containing 10% calf serum, with passage for 1 time every 2 days, and the cells in logarithmic growth phase were taken for experiments. After the A549, BGC-823, LOVO, MCF-7, SMMC-7721, HeLa and B16-F10 cells in logarithmic growth phase were subjected to 0.25% trypsin digestion, they were blown into a single cell suspension, and then the cell concentration was adjusted to about 1×10^5·mL^−1 using RPMI 1640 solution containing 10% calf serum. The cells were seeded in a 96-well culture plate at 100 μL per well, and cultured for 24 hours until the cells were attached. K562 cells were taken and centrifuged and diluted into 2×10^5·mL^−1 single cell suspension with RPMI 1640 solution containing 10% calf serum, and inoculated into a 96-well culture plate at 100 μL per well.
(§4) 100 μL of sample solution with different concentrations to be tested were added to the above 96-well plate, each concentration was added to 4 wells in parallel, and the cell control group was added with an equal volume of RPMI 1640 medium containing 10% calf serum to make a reaction volume of 200 μL. After incubating in an incubator at 37° C., 5% CO2 for 72 h, 10 μL of 5 mg·mL^−1 MTT solution was added to each well, and incubated at 37° C. for 4 h. The supernatant was carefully aspirated, 180 μL of DMSO was added to each well followed by shaking, and the absorbance (OD) value was measured at 570 nm on the microplate reader. The inhibition rate was calculated, and regression equation was established with the logarithmic value of the sample concentration and the inhibition rate (IR) to find the IC50 value of the compound against the cells to be tested. IR (%)=(1−OD value of the experimental group/OD value of the cell control group)×100%

[2] = test system: BGC-823 (human gastric cancer cells); assay: Inhibition of proliferation of tumor cell lines (MTT), BGC-823; format: cell-based; conditions: Homo sapiens, BGC-823, 72 h, read-out: IC50 value of compound for inhibition of proliferation of tumor cell lines, BGC-823
Protocol: as §1, §2, §3, §4

[3] = test system: LOVO (human colon cancer cells); assay: Inhibition of proliferation of tumor cell lines (MTT), LOVO; format: cell-based; conditions: Homo sapiens, 72 h, read-out: IC50 value of compound for inhibition of proliferation of tumor cell lines, LOVO
Protocol: as §1, §2, §3, §4

[4] = test system: K562 (human leukemia cells); assay: Inhibition of proliferation of tumor cell lines (MTT), K562; format: cell-based; conditions: Homo sapiens, K562, 72 h, read-out: IC50 value of compound for inhibition of proliferation of tumor cell lines, K562
Protocol: as §1, §2, §3, §4

[5] = test system: SMMC-7721 (human liver cancer cells); assay: Inhibition of proliferation of tumor cell lines (MTT), SMMC-7721; format: cell-based; conditions: Homo sapiens, SMMC-7721, 72 h, read-out: IC50 value of compound for inhibition of proliferation of tumor cell lines, SMMC-7721
Protocol: as §1, §2, §3, §4

[6] = test system: MCF-7 (human breast cancer cells); assay: Inhibition of proliferation of tumor cell lines (MTT), MCF-7; format: cell-based; conditions: Homo sapiens, MCF7, MCF-7, 72 h, read-out: IC50 value of compound for inhibition of proliferation of tumor cell lines, MCF-7
Protocol: as §1, §2, §3, §4

[7] = test system: HeLa (human cervical cancer cells); assay: Inhibition of proliferation of tumor cell lines (MTT), HeLa; format: cell-based; conditions: Homo sapiens, 72 h, read-out: IC50 value of compound for inhibition of proliferation of tumor cell lines, HeLA
Protocol: as §1, §2, §3, §4

[8] = test system: mouse B16-F10 melanoma cells; assay: Inhibition of proliferation of tumor cell lines (MTT), B16-F10; format: cell-based; conditions: Mus musculus, B16-F10, 72 h, read-out: IC50 value of compound for inhibition of proliferation of tumor cell lines, B16-F10
Protocol: as §1, §3, §4

[9] = test system: neutrophilic granulocytes; assay: Neutrophil oxidative burst (luminol chemiluminescence); format: cell-based; conditions: Neutrophil, rat neutrophils, (Csample−Ccontrol)/Ccontrol×100%, read-out: Efficiency of compounds in stimulating neutrophil oxidative burst; for activation at 0.1 µg/mL: 0.1 μg/mL; for activation at 3 µg/mL: 3 μg/mL
Protocol: This example investigated the effect of compound on neutrophil oxidative burst and calculated the efficiency of each compound in stimulating neutrophil oxidative burst.
Blood was taken from the abdominal aorta of rat. The neutrophilic granulocytes were isolated by the operational procedure of the rat peripheral blood neutrophil isolation kit. The neutrophilic granulocytes were re-suspended by Hanks, and were plated in a 96-well white plate at 1×10^5 cells/well, 80 μL/well; 1 mM of Luminol was added at 10 μL/well; 10 μL of the sample was added to each well, and the degree of oxidative burst was evaluated by chemiluminescence. Calculation formula of Efficiency: Efficiency (%)=(Csample−Ccontrol)/Ccontrol×100%

[10] = test system: release of IL-8 by human keratinocytes (HaCaT); assay: Release of IL-8 by human keratinocytes (HaCaT), IL-8 Elisa; format: cell-based; conditions: Homo sapiens, HaCaT, 24 h, (Csample−Ccontrol)/Ccontrol×100%, read-out: Efficiency of compound in stimulating the release of IL-8 by HaCaT cells; for activation at 0.1 µg/mL: 0.1 μg/mL; for activation at 1 µg/mL: 1 μg/mL
Protocol: This Example investigated the effect of compound on release of IL-8 by human keratinocytes (HaCaT) and calculated the efficiency of each compound in stimulating the release of IL-8 by human keratinocytes (HaCaT).
Hacat cells were cultured in MEM+10% FBS under the conditions of 37° C., 5% CO2, and when the cells reached 80-95% fusion, they were inoculated into a 96-well culture plate (1×10^4 cells/well) at 100 μL/well, and incubated for 18-24 h. The supernatant was discarded and the cells were incubated for 3-6 h in 1% FBS medium. Different concentrations of the sample solution of compound to be tested were added to each well, and the cell control group was added with an equal volume of 1% FBS medium at 10 μL/well, and incubated for 24 h. The supernatant was taken and tested according to the operation sequence of the IL-8 Elisa kit. Calculation formula of Efficiency: Efficiency (%)=(Csample−Ccontrol)/Ccontrol×100%

[11] = test system: B16-F0 mouse melanoma; assay: Antitumor activity in B16-F0 mouse melanoma model; format: in vivo; conditions: female C57BL/6J mice, intradermal B16 tumor, skin administration once per day for 3 days, 20 μL/mouse, tumor weight on day 19
Protocol: This Example investigated the antitumor activity of compounds in B16-F0 mouse melanoma model.
In vitro passage of B16-F0 tumor source was inoculated subcutaneously into female C57BL/6J mice, and passage was carried out after tumor formation. After passage, the subcutaneous tumor tissue of the tumor-bearing mice was taken and ground with 3 times amount of physiological saline to form a tumor cell suspension, and 0.2 mL/mouse of which was inoculated subcutaneously into the axilla of forelimb of mice, which were used as the tumor-source mice. Female C57BL/6J mice were taken and their hair in an area of 4 cm^2 on the neck and back was shaven. After anesthesia with diethyl ether, B16 tumor source was inoculated intradermally at 0.05 mL/mouse. After 3 days of inoculation, the skin was continuously administered for 3 days, once per day, 20 μL/mouse each time, and in the test, a solvent group as a negative control group was included. On the 19th day of the experiment, the experiment was terminated. After the mice were euthanized, the intradermally transplanted tumors were completely separated and excised, and the tumor was weighed to calculate the tumor inhibition rate. Calculation formula of tumor inhibition rate: tumor inhibition rate (%)=(Wmodel group−Wadministration group)/Wmodel group×100%
The tumor growths of the experimental group and the solvent control group were compared to evaluate the antitumor activity of each compound, and the compound with P<0.05 was considered to be effective.

Row | Compound | IC50 [1] [µg/mL] | IC50 [2] [µg/mL] | IC50 [3] [µg/mL] | IC50 [4] [µg/mL] | IC50 [5] [µg/mL] | IC50 [6] [µg/mL] | IC50 [7] [µg/mL] | IC50 [8] [µg/mL] | activation at 0.1 µg/mL [9] [%] | activation at 0.1 µg/mL [10] [%] | Tumor-inhibition rate [11] [%] | activation at 3 µg/mL [9] [%] | activation at 1 µg/mL [10] [%]
1 | CCCCCCCCCCCC(=O)O[C@@]12C[C@@H](C)[C@]34C=C(C)[C@H](OC(=O)c5c(CC)noc5CC)[C@@]3(O)[C@H](O)C(CO)=C[C@H](C4=O)[C@@H]1C2(C)C [Compound 22, 3-O-(3,5-diethylisoxazolyl-4-formyl)-13-O-dodecanoyl-ingenol] | 18.3 (≈ 26.2 µM) | 11.3 (≈ 16.2 µM) | 11 (≈ 15.8 µM) | 1.14 (≈ 1.63 µM) | 20.1 (≈ 28.8 µM) | 10.9 (≈ 15.6 µM) | 9.59 (≈ 13.7 µM) | 2.96 (≈ 4.24 µM) | 124 | 144 | 39.5 |  | 
2 | C/C=C(/C)C(=O)O[C@H]1C(C)=C[C@]23C(=O)[C@@H](C=C(CO)[C@@H](O)[C@]12O)[C@@H]1C(C)(C)[C@]1(OC(=O)CCCCCCC)C[C@H]3C [Compound 18, 3-O-angeloyl-13-O-octanoyl-ingenol] | 13.6 (≈ 23.7 µM) | 10.1 (≈ 17.6 µM) | 8.47 (≈ 14.8 µM) | 1.41 (≈ 2.46 µM) | 12.4 (≈ 21.7 µM) | 11.7 (≈ 20.4 µM) | 12.2 (≈ 21.3 µM) | 8.43 (≈ 14.7 µM) | 69.1 | 29.8 | 59.0 |  | 
3 | C/C=C(/C)C(=O)O[C@H]1C(C)=C[C@]23C(=O)[C@@H](C=C(CO)[C@@H](O)[C@]12O)[C@@H]1C(C)(C)[C@]1(OC(=O)CCCCCCCCCCC)C[C@H]3C [Compound 9, 3-O-angeloyl-13-O-dodecanoyl-ingenol] | 10.8 (≈ 17.2 µM) | 0.85 (≈ 1.35 µM) | 10.1 (≈ 16.1 µM) | 1.87 (≈ 2.97 µM) | 8.86 (≈ 14.1 µM) | 10.1 (≈ 16.1 µM) | 12.5 (≈ 19.9 µM) | 10.4 (≈ 16.5 µM) |  |  | 71.8 | 77 | 23.5
4 | C/C=C(/C)C(=O)O[C@H]1C(C)=C[C@]23C(=O)[C@@H](C=C(CO)[C@@H](O)[C@]12O)[C@@H]1C(C)(C)[C@]1(OC(=O)CCCCC)C[C@H]3C [Compound 17, 3-O-angeloyl-13-O-hexanoyl-ingenol] | 21.7 (≈ 39.8 µM) | 21.7 (≈ 39.8 µM) | 16.9 (≈ 31 µM) | 2.93 (≈ 5.38 µM) | 21.1 (≈ 38.7 µM) | 18.6 (≈ 34.1 µM) | 18.6 (≈ 34.1 µM) | 6.5 (≈ 11.9 µM) | 82.1 | 121 | 68.8 |  | 
5 | CCCCCCCCCCCC(=O)O[C@@]12C[C@@H](C)[C@]34C=C(C)[C@H](O)[C@@]3(O)[C@H](O)C(COC(C)=O)=C[C@H](C4=O)[C@@H]1C2(C)C [Compound 12, 20-O-acetyl-13-O-dodecanoyl-ingenol] | 16 (≈ 27.2 µM) | 10.3 (≈ 17.5 µM) | 6.71 (≈ 11.4 µM) | 0.06 (≈ 0.102 µM) | 12.7 (≈ 21.6 µM) | 12.7 (≈ 21.6 µM) | 32.3 (≈ 54.9 µM) | 14 (≈ 23.8 µM) |  |  | 40.7 | 88.3 | 37
6 | CCCCCCCCCCCC(=O)O[C@@]12C[C@@H](C)[C@]34C=C(C)[C@H](OC(=O)C(C)=C(C)C)[C@@]3(O)[C@H](O)C(CO)=C[C@H](C4=O)[C@@H]1C2(C)C [Compound 21, 3-O-(2,3-dimethylbutenoyl)-13-O-dodecanoyl-ingenol] | 11.8 (≈ 18.4 µM) | 10.4 (≈ 16.2 µM) | 12.4 (≈ 19.3 µM) | 2.06 (≈ 3.2 µM) | 12.8 (≈ 19.9 µM) | 8.32 (≈ 12.9 µM) | 15.3 (≈ 23.8 µM) | 15.1 (≈ 23.5 µM) |  | 127 | 64.1 | 34.8 | 
7 | CCCCCCCCCCCC(=O)O[C@@]12C[C@@H](C)[C@]34C=C(C)[C@H](OC(=O)C(C)(C)C)[C@@]3(O)[C@H](O)C(CO)=C[C@H](C4=O)[C@@H]1C2(C)C [3-O-trimethylacetyl-13-O-dodecanoyl-ingenol] | 17.5 (≈ 27.7 µM) | 6.81 (≈ 10.8 µM) | 9.68 (≈ 15.3 µM) | < 0.2 | 15.1 (≈ 23.9 µM) | 8.79 (≈ 13.9 µM) | 14.2 (≈ 22.5 µM) | 7.7 (≈ 12.2 µM) | 205 | 83.7 | 47.4 |  | 
8 | C/C=C(/C)C(=O)O[C@H]1C(C)=C[C@]23C(=O)[C@@H](C=C(CO)[C@@H](O)[C@]12O)[C@@H]1C(C)(C)[C@]1(OC(=O)CCCCCCCCC)C[C@H]3C [Compound 19, 3-O-angeloyl-13-O-decanoyl-ingenol] | 12.6 (≈ 21 µM) | 14 (≈ 23.3 µM) | 7.9 (≈ 13.1 µM) | 2.13 (≈ 3.55 µM) | 13.4 (≈ 22.3 µM) | 9.3 (≈ 15.5 µM) | 8.58 (≈ 14.3 µM) | 9.85 (≈ 16.4 µM) | 43.5 | 144 | 65.7 |  | 
